From patent US12077503B2, “Substituted cyclic amides and their use as herbicides” (FMC CORPORATION, priority 2015, dated 2024)

Columns and labels:
Type in all cases: in vivo
[1] = system: Kochia (Kochia scoparia); test: Test A preemergence; settings: Preemergence; for Plant response rating, Kochia: 125 g ai/ha, visual injury after approximately 10 d, 0 to 100 scale where 0 is no effect and 100 is complete control; for Kochia plant response rating (0 to 100 scale, 0 is no effect, 100 is complete control): 500 g ai/ha, visual injury approx. 10 d
Method in brief: (§1)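 Each rating is a visual injury score from 0 to 100 given about 10 d after treatment, judged against untreated controls kept alongside in the greenhouse. In loam soil–sand blend, seeds got a preemergence directed soil spray, while postemergence plants were 2 to 10 cm tall at spraying.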

[2] = system: barnyardgrass (Echinochloa crus-galli); test: Test A preemergence; settings: Preemergence; for Plant response rating, Barnyardgrass: 125 g ai/ha, visual injury after approximately 10 d, 0 to 100 scale where 0 is no effect and 100 is complete control; for Barnyardgrass plant response rating (0 to 100 scale, 0 is no effect, 100 is complete control): 500 g ai/ha, visual injury approx. 10 d
Method in brief: as §1

[3] = system: giant foxtail (Setaria faberii); test: Test A preemergence; settings: Preemergence; for Plant response rating, Foxtail, Giant: 125 g ai/ha, visual injury after approximately 10 d, 0 to 100 scale where 0 is no effect and 100 is complete control; for Foxtail, Giant plant response rating (0 to 100 scale, 0 is no effect, 100 is complete control): 500 g ai/ha, visual injury approx. 10 d
Method in brief: as §1

[4] = system: pigweed (Amaranthus retroflexus); test: Test A preemergence; settings: Preemergence; for Plant response rating, Pigweed: 125 g ai/ha, visual injury after approximately 10 d, 0 to 100 scale where 0 is no effect and 100 is complete control; for Pigweed plant response rating (0 to 100 scale, 0 is no effect, 100 is complete control): 500 g ai/ha, visual injury approx. 10 d
[5] = system: ragweed (common ragweed, Ambrosia elatior); test: Test A preemergence; settings: Preemergence; for Plant response rating, Ragweed: 125 g ai/ha, visual injury after approximately 10 d, 0 to 100 scale where 0 is no effect and 100 is complete control; for Ragweed plant response rating (0 to 100 scale, 0 is no effect, 100 is complete control): 500 g ai/ha, visual injury approx. 10 d
Method in brief: as §1

[6] = system: ryegrass, Italian (Italian ryegrass, Lolium multiflorum); test: Test A preemergence; settings: Preemergence; for Plant response rating, Ryegrass, Italian: 125 g ai/ha, visual injury after approximately 10 d, 0 to 100 scale where 0 is no effect and 100 is complete control; for Ryegrass, Italian plant response rating (0 to 100 scale, 0 is no effect, 100 is complete control): 500 g ai/ha, visual injury approx. 10 d
Method in brief: as §1

[7] = system: Galium (catchweed bedstraw, Galium aparine); test: Test A postemergence
Method in brief: as §1

[8] = system: Kochia (Kochia scoparia); test: Test A postemergence
Method in brief: as §1

[9] = system: barnyardgrass (Echinochloa crus-galli); test: Test A postemergence
Method in brief: as §1

[10] = system: blackgrass (Alopecurus myosuroides); test: Test A postemergence
Method in brief: as §1

[11] = system: corn (Zea mays); test: Test A postemergence
Method in brief: as §1

[12] = system: giant foxtail (Setaria faberii); test: Test A postemergence
Method in brief: as §1

[13] = system: pigweed (Amaranthus retroflexus); test: Test A postemergence
Method in brief: as §1

[14] = system: ragweed (common ragweed, Ambrosia elatior); test: Test A postemergence
Method in brief: as §1

[15] = system: ryegrass, Italian (Italian ryegrass, Lolium multiflorum); test: Test A postemergence
Method in brief: as §1

[16] = system: wheat (Triticum aestivum); test: Test A postemergence
Method in brief: as §1

[17] = system: barnyardgrass (Echinochloa crus-galli); test: Test B flooded paddy test; settings: Flood, 250 g ai/ha; 0 to 100 scale where 0 is no effect and 100 is complete control; 13 to 15 d
Method in brief: (§2)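 Rating scale 0–100 (visual, vs untreated controls) after a 13–15 d greenhouse period; application to the flood layer, 3 cm above soil and maintained; plants at 2-leaf stage when treated.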

[18] = system: ducksalad (Heteranthera limosa); test: Test B flooded paddy test; settings: Flood, 250 g ai/ha; 0 to 100 scale where 0 is no effect and 100 is complete control; 13 to 15 d
Method in brief: as §2

[19] = system: rice (Oryra sativa); test: Test B flooded paddy test; settings: Flood, 250 g ai/ha; 0 to 100 scale where 0 is no effect and 100 is complete control; 13 to 15 d
Method in brief: as §2

[20] = system: sedge, umbrella (small-flower umbrella sedge, Cyperus difformis); test: Test B flooded paddy test; settings: Flood, 250 g ai/ha; 0 to 100 scale where 0 is no effect and 100 is complete control; 13 to 15 d
Method in brief: as §2

[21] = 125 g ai/ha, postemergence, visual rating after approx. 10 d, 0 to 100 scale (0 no effect, 100 complete control)
[22] = Postemergence, 500 g ai/ha, 0 to 100 scale where 0 is no effect and 100 is complete control

| Structure (SMILES) | Plant response rating, Kochia [1] | Kochia plant response rating (0 to 100 scale, 0 is no effect, 100 is complete control) [1] | Plant response rating, Barnyardgrass [2] | Barnyardgrass plant response rating (0 to 100 scale, 0 is no effect, 100 is complete control) [2] | Plant response rating, Foxtail, Giant [3] | Foxtail, Giant plant response rating (0 to 100 scale, 0 is no effect, 100 is complete control) [3] | Plant response rating, Pigweed [4] | Pigweed plant response rating (0 to 100 scale, 0 is no effect, 100 is complete control) [4] | Plant response rating, Ragweed [5] | Ragweed plant response rating (0 to 100 scale, 0 is no effect, 100 is complete control) [5] | Plant response rating, Ryegrass, Italian [6] | Ryegrass, Italian plant response rating (0 to 100 scale, 0 is no effect, 100 is complete control) [6] | Plant response rating, Galium [7, 21] | Plant response rating, Galium [7, 22] | Plant response rating, Kochia [8, 21] | Plant response rating, Kochia [8, 22] | Plant response rating, Barnyardgrass [9, 21] | Plant response rating, Barnyardgrass [9, 22] | Plant response rating, Blackgrass [10, 21] | Plant response rating, Blackgrass [10, 22] | other results |
| --- | --- | --- | --- | --- | --- | --- | --- | --- | --- | --- | --- | --- | --- | --- | --- | --- | --- | --- | --- | --- | --- |
| O=C1NCC(c2ccsc2Cl)C1C(=O)Nc1ccccc1F (stereo not drawn) [Compound 599] | 0 | 0 | 0 | 30 | 0 | 0 | 0 | 0 | 0 | 0 | 0 | 0 | 0 | 0 | 0 | 0 | 0 | 20 | 0 | 0 | Plant response rating, Corn [11, 21]: 0; Plant response rating, Corn [11, 22]: 0; Plant response rating, Foxtail, Giant [12, 21]: 0; Plant response rating, Foxtail, Giant [12, 22]: 0; Plant response rating, Pigweed [13, 21]: 0; Plant response rating, Pigweed [13, 22]: 0; Plant response rating, Ragweed [14, 21]: 0; Plant response rating, Ragweed [14, 22]: 0; Plant response rating, Ryegrass, Italian [15, 21]: 0; Plant response rating, Ryegrass, Italian [15, 22]: 0; Plant response rating, Wheat [16, 21]: 0; Plant response rating, Wheat [16, 22]: 0; Plant response rating, Barnyardgrass [17]: 0; Plant response rating, Ducksalad [18]: 50; Plant response rating, Rice [19]: 0; Plant response rating, Sedge, Umbrella [20]: 0 |
| O=C1NCC(c2ccsc2Cl)C1C(=O)Nc1cccc(F)c1F (stereo not drawn) [Compound 600] | 0 | 20 | 30 | 90 | 30 | 90 | 0 | 0 | 0 | 0 | 0 | 0 | 0 | 0 | 0 | 0 | 0 | 90 | 0 | 0 | Plant response rating, Corn [11, 21]: 0; Plant response rating, Corn [11, 22]: 0; Plant response rating, Foxtail, Giant [12, 21]: 0; Plant response rating, Foxtail, Giant [12, 22]: 30; Plant response rating, Pigweed [13, 21]: 0; Plant response rating, Pigweed [13, 22]: 0; Plant response rating, Ragweed [14, 21]: 0; Plant response rating, Ragweed [14, 22]: 0; Plant response rating, Ryegrass, Italian [15, 21]: 0; Plant response rating, Ryegrass, Italian [15, 22]: 0; Plant response rating, Wheat [16, 21]: 0; Plant response rating, Wheat [16, 22]: 0; Plant response rating, Barnyardgrass [17]: 0; Plant response rating, Ducksalad [18]: 85; Plant response rating, Rice [19]: 15; Plant response rating, Sedge, Umbrella [20]: 0 |
| O=C1NCC(c2cc(Cl)sc2Cl)C1C(=O)Nc1cccc(F)c1F (stereo not drawn) [Compound 601] | 0 | 0 | 60 | 80 | 70 | 80 | 0 | 0 | 0 | 0 | 0 | 0 | 0 | 0 | 0 | 0 | 20 | 70 | 0 | 0 | Plant response rating, Corn [11, 21]: 0; Plant response rating, Corn [11, 22]: 20; Plant response rating, Foxtail, Giant [12, 21]: 20; Plant response rating, Foxtail, Giant [12, 22]: 50; Plant response rating, Pigweed [13, 21]: 0; Plant response rating, Pigweed [13, 22]: 0; Plant response rating, Ragweed [14, 21]: 0; Plant response rating, Ragweed [14, 22]: 0; Plant response rating, Ryegrass, Italian [15, 21]: 0; Plant response rating, Ryegrass, Italian [15, 22]: 0; Plant response rating, Wheat [16, 21]: 0; Plant response rating, Wheat [16, 22]: 20; Plant response rating, Barnyardgrass [17]: 40; Plant response rating, Ducksalad [18]: 75; Plant response rating, Rice [19]: 0; Plant response rating, Sedge, Umbrella [20]: 0 |
